Test results from patent US8344101B2, “Composition for improving brain function and method for improving brain function” (Calpis Co., Ltd., priority 2009, dated 2013).

Tested on: scopolamine-induced amnesia
Assay: Y-shaped maze test of spontaneous alternation behavior in mice with scopolamine-induced amnesia
Assay type: in vivo
Details: male ddY mice, scopolamine 1 mg/kg s.c. 30 minutes before test
Experimental: Male mice (n=15 to 30) of the ddY strain (approximately 7-week old) were used, and they took food and water ad lib. Test substances used were 150 nmol/kg weight (380 μg/kg weight) and 500 nmol/kg weight (1280 μg/kg weight) of […](SEQ ID NO: 2 ). The test substances were administered to the mice once orally […] the execution of a Y-shaped maze test for evaluation of spontaneous alternation behavior. Further, 30 minutes before the execution of the Y-shaped maze test, 1 mg/kg weight of scopolamine was subcutaneously administered on the backs of the mice in order to induce brain dysfunction (dysmnesia and/or cognitive impairment) in the mice. In the Y-shaped maze test, a Y-shaped maze was used as an experimental device, in which the length of each arm was 40 cm, the height of the wall was 12 cm, the width of the floor was 3 cm, and the width of the upper part was 10 cm, and three arms were connected to each other at an angle of 120 degrees. Each of the mice was placed at the tip of any one of the arms of the Y-shaped maze, and then let go to freely explore in the maze for 8 minutes. The sequence of the arms each of the mice entered was recorded. The number of entries by each of the mice for each of the anus during the measurement time was counted to be the total number of entries. In the sequence, the combination in which three different arms were selected in succession (for example, with the three arms respectively called A, B, and C, if the sequence of the arms entered is ABCBACACB, the count is 4 inclusive of overlapping) was investigated, and the number of the count was used as the number of spontaneous alternation behavior. The percentage of spontaneous alternation behavior was calculated by dividing the number of spontaneous alternation behavior by a number obtained by subtracting 2 from the total number of entries, and multiplying a resultant number by 100. The percentage of spontaneous alternation behavior was used as an indicator. […] The measured values were expressed in the form of mean ±standard error for each group. A significant difference between the control group and the scopolamine control group was calculated using Student's t-test. Further, a significant difference between the scopolamine control group and the […] (SEQ ID NO: 2 )-administered group was calculated using Student's t-test.
Male mice (n=15 to 30) of the ddY strain (approximately 7-week old) were used, and they took food and water ad lib. Test substances used here were: 500 nmol/kg weight (1280 μg/kg weight) of […](SEQ ID NO: 2 ); 500 nmol/kg weight (1140 μg/kg weight) of […](SEQ ID NO: 1 ) ([…]); 500 nmol/kg weight (1400 μg/kg weight) of […]([…]) (SEQ ID NO: 3 ); and 500 nmol/kg weight (1150 μg/kg weight) of Ser-Trp-Met-His-Gln-Pro-His-Gln-Pro-Leu-Pro-Pro-Thr-Val-Met-Phe-Pro-Pro-Gln (SWMHQPHQPLPPTVMFPPQ) (SEQ ID NO: 5). The test substances were administered to the mice once orally 60 minutes before the execution of a Y-shaped maze test for evaluation of spontaneous alternation behavior. Further, 30 minutes before the execution of the Y-shaped maze test, 1 mg/kg weight of scopolamine was subcutaneously administered on the backs of the mice in order to induce brain dysfunction (dysmnesia and/or cognitive impairment) in the mice. […] The arms each of the mice entered were sequentially recorded. The number of entries by each of the mice for each of the arms during the measurement time was counted to be the total number of entries. […]

[1] = Example 2, single oral dose 500 nmol/kg weight 60 minutes before Y-shaped maze test, FIG. 2

Sequence	prophylactic activity against amnesia (percentage of spontaneous alternation behavior) [1]	prophylactic activity against amnesia (percentage of spontaneous alternation behavior) (Example 1, single oral dose ranging from 150 nmol/kg weight to 500 nmol/kg weight (380 to 1280 μg/kg weight), given 60 before Y-shaped maze test, FIG. 1)
SWMHQPHQPLPPTVMFPPQ (Synthetic comparative example peptide) [Ser-Trp-Met-His-Gln-Pro-His-Gln-Pro-Leu-Pro-Pro-Thr-Val-Met-Phe-Pro-Pro-Gln, C-terminally truncated related peptide tested for comparison]	did not show any activity	
MHQPHQPLPPTVMFPPQSVL (Synthetic functional peptide)	had a prophylactic activity against amnesia	
LQSWMHQPHQPLPPTVMFPPQSVL (Synthetic functional peptide)	had a prophylactic activity against amnesia	
SWMHQPHQPLPPTVMFPPQSVL (Synthetic functional peptide)	had a prophylactic activity against amnesia	had a prophylactic activity against amnesia
